Holding throughout (assay): Bliss interaction score (quartile over a dose matrix) (fitness difference); higher = more antagonism (negative = synergy)
One test deals with S. pneumoniae D39V. The gist of the method:
(§1)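 The Bliss score is observed minus expected fitness under the product model, reported as quartiles over technical, biological and donor/recipient replicates. Fitness is the OD595 at entry into stationary phase divided by the plate's robust no-drug mean and capped at 1. Single-drug fitness was inferred from combination data.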

Another test relates to S. aureus Newman. The gist of the method:
as §1

For another test, the system named is B. subtilis 168. In short, it runs like this: as §1
The next test concerns S. aureus DSM 20231. The gist of the method:
as §1
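Note: first quartile when negative (synergy) and third quartile when positive (antagonism).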

On to `CC(=O)O[C@H]1C[C@@]2(C)[C@@H](C[C@@H](O)[C@H]3[C@@]4(C)CC[C@@H](O)[C@@H](C)[C@@H]4CC[C@@]32C)/C1=C(\CCC=C(C)C)C(=O)O` [Fusidic acid] + Clc1ccc(COC(Cn2ccnc2)c2ccc(Cl)cc2Cl)c(Cl)c1 [Miconazole], for which the Bliss interaction score is -0.117 in the test on S. pneumoniae D39V, -0.0399 with S. aureus Newman, -0.0605 in the test on B. subtilis 168 and 0.0483 with S. aureus DSM 20231.
For `CC(=O)O[C@H]1C[C@@]2(C)[C@@H](C[C@@H](O)[C@H]3[C@@]4(C)CC[C@@H](O)[C@@H](C)[C@@H]4CC[C@@]32C)/C1=C(\CCC=C(C)C)C(=O)O` [Fusidic acid] + Cn1nnc(-c2ccc(-c3ccc(N4C[C@H](CO)OC4=O)cc3F)cn2)n1 [Tedizolid], the Bliss interaction score in the test with S. pneumoniae D39V is -0.0933; with S. aureus Newman, -0.048; with B. subtilis 168, -0.131; in the test on S. aureus DSM 20231, -0.0507.
The corresponding values for `CC(=O)O[C@H]1C[C@@]2(C)[C@@H](C[C@@H](O)[C@H]3[C@@]4(C)CC[C@@H](O)[C@@H](C)[C@@H]4CC[C@@]32C)/C1=C(\CCC=C(C)C)C(=O)O` [Fusidic acid] + O=C1CN(/N=C/c2ccc([N+](=O)[O-])o2)C(=O)N1 [Nitrofurantoin] are -0.186, -0.0292, -0.0345 and -0.0226.
Take `CC(=O)O[C@H]1C[C@@]2(C)[C@@H](C[C@@H](O)[C@H]3[C@@]4(C)CC[C@@H](O)[C@@H](C)[C@@H]4CC[C@@]32C)/C1=C(\CCC=C(C)C)C(=O)O` [Fusidic acid] + Oc1cc(Cl)ccc1Oc1ccc(Cl)cc1Cl [Triclosan]: the Bliss interaction score in the test on S. pneumoniae D39V is 0.124; with S. aureus Newman, 0.0305; with B. subtilis 168 it was 0.0422; in the test on S. aureus DSM 20231, -0.0259.
Regarding `C[C@@H](O)[C@H]1C(=O)N2C(C(=O)O)=C(SCCNC=N)C[C@H]12` [Imipenem] + CC1(C)S[C@@H]2[C@H](NC(=O)Cc3ccccc3)C(=O)N2[C@H]1C(=O)O [PenicillinG], the Bliss interaction score in the test on S. pneumoniae D39V is -0.0999; with S. aureus Newman it was -0.198; in the test with B. subtilis 168, 0.0587; in the test with S. aureus DSM 20231, -0.0614.
As for `C[C@@H](O)[C@H]1C(=O)N2C(C(=O)O)=C(SCCNC=N)C[C@H]12` [Imipenem] + CCCCCCCCCC(=O)N[C@@H]1[C@H]([C@@H]([C@H](O[C@H]1OC2=C3C=C4C=C2OC5=C(C=C(C=C5)[C@H]([C@H]6C(=O)N[C@@H](C7=C(C(=CC(=C7)O)OC8[C@H]([C@H]([C@@H]([C@H](O8)CO)O)O)O)C9=C(C=CC(=C9)[C@H](C(=O)N6)NC(=O)[C@@H]4NC(=O)[C@@H]1C2=CC(=CC(=C2)OC2=C(C=CC(=C2)[C@H](C(=O)N[C@H](CC2=CC(=C(O3)C=C2)Cl)C(=O)N1)N)O)O)O)C(=O)O)O[C@H]1[C@@H]([C@H]([C@@H]([C@H](O1)CO)O)O)NC(=O)C)Cl)CO)O)O [Teicoplanin], the Bliss interaction score in the test with S. pneumoniae D39V (main component drawn) was -0.102; in the test with S. aureus Newman (main component drawn) it was 0.0599; with B. subtilis 168 (main component drawn) it was -0.0771; in the test with S. aureus DSM 20231 (main component drawn), 0.0578.
For the compound `C[C@@H](O)[C@H]1C(=O)N2C(C(=O)O)=C(SCCNC=N)C[C@H]12` [Imipenem] + CC[C@H]1OC(=O)[C@H](C)C(=O)[C@H](C)[C@@H](O[C@@H]2O[C@H](C)C[C@H](N(C)C)[C@H]2O)[C@](C)(OC)C[C@@H](C)C(=O)[C@H](C)[C@H]2N(CCCCn3cnc(-c4cccnc4)c3)C(=O)O[C@]12C [Telithromycin], the Bliss interaction score is 0.0906 with S. pneumoniae D39V, -0.0123 with S. aureus Newman, 0.0561 in the test on B. subtilis 168 and -0.0311 in the test with S. aureus DSM 20231.
As to `C[C@@H](O)[C@H]1C(=O)N2C(C(=O)O)=C(SCCNC=N)C[C@H]12` [Imipenem] + CN[C@H](CC(C)C)C(=O)N[C@H]1C(=O)N[C@@H](CC(N)=O)C(=O)N[C@H]2C(=O)N[C@H]3C(=O)N[C@H](C(=O)N[C@H](C(=O)O)c4cc(O)cc(O)c4-c4cc3ccc4O)[C@H](O[C@H]3C[C@](C)(N)[C@@H](O)[C@H](C)O3)c3ccc(c(Cl)c3)Oc3cc2cc(c3O[C@@H]2O[C@H](CO)[C@@H](O)[C@H](O)[C@H]2O[C@H]2C[C@](C)(NCc3ccc(-c4ccc(Cl)cc4)cc3)[C@@H](O)[C@H](C)O2)Oc2ccc(cc2Cl)[C@H]1O [Oritavancin], the Bliss interaction score in the test with S. pneumoniae D39V is -0.0529; with S. aureus Newman it was 0.0479; in the test with B. subtilis 168, 0.0293; in the test on S. aureus DSM 20231, -0.0256.
The corresponding values for `C[C@@H](O)[C@H]1C(=O)N2C(C(=O)O)=C(SCCNC=N)C[C@H]12` [Imipenem] + CO[C@@H]1[C@@H](OC(N)=O)[C@@H](O)[C@H](Oc2ccc3c(O)c(NC(=O)c4ccc(O)c(CC=C(C)C)c4)c(=O)oc3c2C)OC1(C)C [Novobiocin] are -0.107, -0.0163, -0.166 and 0.0228.
Regarding `C[C@@H](O)[C@H]1C(=O)N2C(C(=O)O)=C(SCCNC=N)C[C@H]12` [Imipenem] + CO[C@@]12[C@H](COC(N)=O)C3=C(C(=O)C(C)=C(N)C3=O)N1C[C@@H]1N[C@@H]12 [MitomycinC], the Bliss interaction score in the test on S. pneumoniae D39V is -0.0563; in the test with S. aureus Newman, 0.0577; in the test with B. subtilis 168 it was -0.0977; in the test on S. aureus DSM 20231 it was -0.03.
Taken in the same sequence, the figures for `C[C@@H](O)[C@H]1C(=O)N2C(C(=O)O)=C(SCCNC=N)C[C@H]12` [Imipenem] + COc1cc(Cc2cnc(N)nc2N)cc(OC)c1OC [Trimethoprim] were 0.153, -0.0308, -0.127 and -0.0457.
The corresponding values for `C[C@@H](O)[C@H]1C(=O)N2C(C(=O)O)=C(SCCNC=N)C[C@H]12` [Imipenem] + Oc1cc(Cl)ccc1Oc1ccc(Cl)cc1Cl [Triclosan] are 0.0753, 0.0211, -0.0589 and 0.0376.
Turning to `CCC[C@@H]1C[C@@H](C(=O)N[C@@H]([C@H]2O[C@H](SC)[C@H](O)[C@@H](O)[C@H]2O)[C@@H](C)O)N(C)C1` [Lincomycin] + CC1(C)S[C@@H]2[C@H](NC(=O)Cc3ccccc3)C(=O)N2[C@H]1C(=O)O [PenicillinG], the Bliss interaction score turned out to be 0.0998 in the test on S. pneumoniae D39V, 0.0805 with S. aureus Newman, 0.0736 in the test on B. subtilis 168 and 0.0494 in the test with S. aureus DSM 20231.
Take `CCC[C@@H]1C[C@@H](C(=O)N[C@@H]([C@H]2O[C@H](SC)[C@H](O)[C@@H](O)[C@H]2O)[C@@H](C)O)N(C)C1` [Lincomycin] + CC[C@H]1OC(=O)[C@H](C)C(=O)[C@H](C)[C@@H](O[C@@H]2O[C@H](C)C[C@H](N(C)C)[C@H]2O)[C@](C)(OC)C[C@@H](C)C(=O)[C@H](C)[C@H]2N(CCCCn3cnc(-c4cccnc4)c3)C(=O)O[C@]12C [Telithromycin]: the Bliss interaction score was -0.171 with S. pneumoniae D39V, -0.0488 with S. aureus Newman, 0.091 with B. subtilis 168 and -0.053 with S. aureus DSM 20231.

(Values after the supplement of paper PMC10627819.)
